Patent US9006454B2, “Dihydroorotate dehydrogenase inhibitors” (Merck Serono S.A., priority 2009, dated 2015)

Tests used:
Jurkat cells = experiment: Measurement of cell proliferation (Jurkat cell), XTT assay; format: cell-based; details: Homo sapiens, Jurkat; for inhibition at 1 µM: compound at 1 uM, read-out: % inh Jurkat_cells @ 1 uM (%); for EC50: 72 h, XTT cell viability
Method: See also Roehm, N et al [1991] An improved colorimetric assay for cell proliferation and viability utilizing the tetrazolium salt XTT. J. Immunol. Methods 142:257-265.
Culture Jurkat cells in T-25 flasks at a density of 0.2×10^6/ml 2-3 days before the day of experiment set up.
Centrifuge Jurkat T-cell suspension at 1200 rpm for 10 minutes and resuspend cells again in fresh RPMI medium with 10% FBS.
Count the cells and dilute suspension to a density of 2×10^6 cells/ml. Seed 50 μL of this suspension in each well of a 96 well plate (100,000 cells per well). Keep the edges of the plate empty to avoid evaporation.
Serially dilute DMSO stocks of compounds to get different concentrations for an EC50 curve. 50 μL of compound diluted in media (2× concentration required in well) is added to each well. DMSO concentration should be kept constant at 0.25-0.5% for all wells.
Typically, for all compounds with IC50<1 μM, compound concentration can start at 10 μM followed by half log dilutions for a total of 8-10 concentrations. Each concentration has to be tested in triplicate.
Include controls such as cells without compound (with same DMSO concentration as compound wells), and media control
Incubate the 96 well plate in a CO2 incubator at 37° C. for 72 hrs before determining cell viability using XTT assay
XTT assay: to each well, add 50 μL of 1 mg/ml XTT solution with 20 μl of PMS/mL. Read the plates after 2 hours at 465 nm using the spectrophotometer. XTT reading for media without cells is used as background reading.
Calculate % cell viability assuming that the cells without compound are 100% viable.
Plot % cell viability as a function of concentration and determine EC50 by using software such as Graph Pad Prism to fit the curve.

DHODH = DHODH (Homo sapiens (Human), UniProt Q02127); experiment: DHODH activity assay (coupled enzyme assay, DCIP reduction, absorbance at 610 nm); format: biochemical; details: for inhibition at 10 µM: compound at 10 uM, read-out: inh @ 10 uM hDHODH (%)
Method: The DHODH activity assay is a coupled enzyme assay in which oxidation of DHO and subsequent reduction of ubiquinone are stoichiometrically equivalent to the reduction of DCIP ([…]). The reduction of DCIP is accompanied by a loss of absorbance at 610 nm.
Buffer Preparation: 50 mM tris HCl, 150 mM KCl, and pH 8.0, 0.8% triton.
5 μL of Dimethyl sulfoxide or a compound of formula I in DMSO solution was added to the wells of a 96 well plate. Compounds of formula I were measured at 10 μM.
Protein along with buffer was added, so that the total volume including the DMSO was 87 μL. Compound and protein were incubated for half an hour at room temperature after mixing. 5 μL of 20 mM solution of L-Dihydroorotic acid, 5 μL of 2 mM solution of Decylubiquinone and 3 μL of 2 mM solution of 2,6-Dichloroindophenol sodium salt hydrate were added to the above solution (total assay volume 100 μL). The mixture was stirred for 2 min and absorbance was recorded at every 10 min at 610 nanometers.
Percent Inhibition is Calculated as Follows
Positive control contains DMSO, buffer, enzyme and substrates
No Enzyme reaction contains DMSO, buffer and substrates
IC50 determination: • A 2 mM DMSO stock of the compound of formula I to be examined was prepared. ⅓rd dilutions were made as follows:
5 μL of each stock of compound of formula I (solution indicated in column 4 of table) was used for each 100 μL assay. Therefore, 5 μL of the 2 mM stock provided 100 μL of 100 μM solution of compound of formula I, when made up with buffer, protein and substrate. See also: Ulrich et al. (2001) Eur. J. Biochem. 268, 1861-1868.

DHODH, sequence (Q02127 whole entry): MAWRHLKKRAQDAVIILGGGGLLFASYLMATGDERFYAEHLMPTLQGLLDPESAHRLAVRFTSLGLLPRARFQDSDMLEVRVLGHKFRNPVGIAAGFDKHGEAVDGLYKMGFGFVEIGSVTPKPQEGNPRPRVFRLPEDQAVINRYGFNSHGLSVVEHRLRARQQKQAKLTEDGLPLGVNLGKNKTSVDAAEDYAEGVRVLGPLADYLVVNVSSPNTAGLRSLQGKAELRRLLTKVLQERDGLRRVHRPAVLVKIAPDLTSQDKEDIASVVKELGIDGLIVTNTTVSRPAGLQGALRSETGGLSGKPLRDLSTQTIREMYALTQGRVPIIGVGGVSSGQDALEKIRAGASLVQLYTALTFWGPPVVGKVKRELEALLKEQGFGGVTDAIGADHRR

Row | Structure (SMILES) | inhibition at 1 µM (Jurkat cells) [%] | IC50 (DHODH) [nM] | inhibition at 10 µM (DHODH) [%] | EC50 (Jurkat cells) [nM]
1 | O=C(O)c1cccc2[nH]c(-c3ccc(-c4cccc(OC(F)(F)F)c4)cc3)nc12 [I18] | 43.1 | 1260 | 89 | 
2 | O=C(O)c1cccc2nc(-c3ccc(-c4ccccc4)cc3)oc12 [I19] | 34.3 | 3030 | 80.1 | 
3 | COc1cc(-c2nc3c(C(=O)O)cccc3[nH]2)cc(OC)c1-c1ccccc1 [I20] | 67.1 | 975 | 93.2 | 1000
4 | O=C(O)c1cccc2[nH]c(-c3c(F)c(F)c(-c4ccccc4)c(F)c3F)nc12 [I21] | 92.4 | 38 | 97.3 | 238
5 | O=C(O)c1cccc2[nH]c(-c3ccc(-c4ccsc4)cc3)nc12 [I22] | 15.3 |  | 57.3 | 
6 | Cc1cc(C(=O)O)c2nc(-c3ccc(-c4ccsc4)cc3)[nH]c2c1 [I23] | 33.9 |  | 77.8 | 
7 | O=C(O)c1cccc2nc(-c3ccc(-c4ccccc4F)cc3F)[nH]c12 [I24] | 53.2 | 965 | 86.7 | 
8 | Cc1cc(C(=O)O)c2[nH]c(-c3ccc(-c4ccccc4F)cc3F)nc2c1 [I25] | 82 | 172 | 94 | 98
9 | Cc1cc(C(=O)O)c2[nH]c(-c3ccc(-c4ccccc4F)cc3)nc2c1 [I26] | 75.9 | 373 | 93.9 | 105
10 | O=C(O)c1cccc2nc(-c3ccc(-c4ccccc4)cc3F)[nH]c12 [I27] | 57.1 | 922 | 86.2 | 
11 | Cc1cc(C(=O)O)c2[nH]c(-c3ccc(-c4ccccc4)cc3F)nc2c1 [I28] | 75.4 | 403 | 96.3 | 206
12 | O=C(O)c1cccc2nc(-c3ccc(-c4ccc(F)cc4F)cc3F)[nH]c12 [I30] | 31.5 |  | 68.1 | 
13 | Cc1cc(C(=O)O)c2[nH]c(-c3ccc(-c4ccc(F)cc4F)cc3F)nc2c1 [I31] | 55.5 | 1010 | 92.7 | 
14 | O=C(O)c1cccc2nc(-c3ccc(-c4ccc(F)cc4F)cc3)[nH]c12 [I32] | 21.1 |  | 69.6 | 
15 | Cc1cc(C(=O)O)c2[nH]c(-c3ccc(-c4ccc(F)cc4F)cc3)nc2c1 [I33] | 50.5 | 1420 | 91.3 | 
16 | O=C(O)c1cc(F)cc2nc(-c3ccc(-c4ccc(F)cc4F)cc3F)[nH]c12 [I34] | 41.8 |  | 82 | 
17 | O=C(O)c1cc(Cl)cc2nc(-c3ccc(-c4ccccc4)cc3)[nH]c12 [I35] | 56.4 | 994 | 92.9 | 746
18 | O=C(O)c1cc(F)cc2nc(-c3ccc4[nH]ccc4c3)[nH]c12 [I36] | 7.7 |  | 16.1 | 
19 | O=C(O)c1cc(F)cc2nc(-c3ccc4cc[nH]c4c3)[nH]c12 [I37] | 6.9 |  | 13.7 | 
20 | N#Cc1cccc2nc(-c3ccc(-c4ccccc4)cc3)[nH]c12 [I38] | 8 |  | 16.8 | 
21 | O=C(O)c1cccc2nc(-c3cccc4ccccc34)[nH]c12 [I39] | 12.3 |  | 19.9 | 
22 | Cc1cc(C(=O)O)c2[nH]c(-c3cc4ccccc4[nH]3)nc2c1 [I40] | 3.7 |  | 23.3 | 
23 | Cc1cc(C(=O)O)c2nc(-c3c(F)c(F)c(-c4ccccc4)c(F)c3F)[nH]c2c1 [I41] | 103 | 6.8 | 103 | 18
